Laboratory results as given in US20060121082A1, “Method to enhance drug release from a drug-releasing material” (priority 2004, published 2006).

Experiment: microbiological proof of ciprofloxacin bioactivity after manufacturing and during in vitro drug release tests
Settings: microbiologically proved

## O=C(O)c1cn(C2CC2)c2cc(N3CCNCC3)c(F)cc2c1=O [Ciprofloxacin, ciprofloxacin]
Example 1, P(L/DL)LA composite
  bioactivity of ciprofloxacin after manufacturing and during the in vitro drug release tests: bioactive
Example 2, PLGA composite
  bioactivity of ciprofloxacin after manufacturing and during the in vitro drug release tests: bioactive
